From patent US20090270373A1, “TREATMENT OF DOWN SYNDROM WITH BENZODIAZEPINE RECEPTOR ANTAGONISTS” (Cypress Biosciences, Inc., priority 2008, published 2009)

How the values were obtained:
[1] = tested on: WT and Ts65Dn mice; experiment: Open-field locomotor assay (LMA), 30 min session; assay type: in vivo, mouse; conditions: WT and Ts65Dn mice
Description: (§1) Following baseline determinations and group assignments, WT and Ts65Dn mice received intraperitoneal (i.p.) injections once/day (08:00) for the two-week duration of the drug treatment regimen (FIG. 1). Drugs were dissolved in physiological saline. Two drops of Tween 80 were used to facilitate solution formation for flumazenil. Picrotoxin was initially made up at 50× concentration in 20% ethanol and then diluted down to a […] solution with 0.4% ETOH in saline. Doses of drugs were based on previous behavioral research in mice (1 mg/kg for PTX and 10 mg/kg for flumazenil). Injections were given in a volume of 10 ml/kg. A vehicle control was run along side the treatment groups (0.4% ETOH in saline).
(§2) FIG. 1 graphically depicts the protocol. After habituation to the animal facility, mice were tested for baseline behaviors in the open-field locomotor assay (LMA)(30 min session) and the novel object recognition assay. Primary experimental groups were divided by genotype (Ts65Dn mice and wild-type control littermates). These two groups were further divided into drug treatments (vehicle, PTX and flumazenil) with a targeted n-size of 8 mice/group (24 WT and 24 Ts65Dn mice total). The group assignments were made in a semi-random process due to constraints in animal availability (staggered shipping) and choice of initial treatment groups (e-mail documentation between Bilsky laboratory and Cypress Bioscience on file). Daily morning injections began on Day 1 and went through the morning of Day 14. On Days 7/8 and 14/15 (13:00) mice were tested in the behavioral assay. Mice were kept for an additional two weeks and re-tested on Days 21/22 and 28/29 to assess the duration of the drug treatment effect.
General levels of arousal, locomotor activity and anxiety were assessed using an automated open-field activity monitoring system (Coulbourn Instruments with TruScan software). The open field test that were run were fully automated assays that quantified many different aspects and patterns of movement, including total distance traveled, time spent moving, rearing, and various stereotypic patterns of activity. The software calculates the time spent in the middle portions of the open field versus the outer zones alongside the outside walls. These variables can be used as one measure of general anxiety levels.
Mice were placed into an open field (26 cm×26 cm) in a brightly lit room. Two sensor rings (x-y plane and a vertical z plane) generate an array of infrared beams that surround the chamber. The pattern of beam breaks was recorded and the data fed into a personal computer. The TruScan software interpreted the beam breaks to calculate the movement variables and patterns of activity, with a temporal resolution of 100 msec. A 30 minutes session was used for assessment of the mice on Day 0 (Baseline) and then on Days 1, 7, 14, 21 and 28. Data were exported into an Excel spreadsheet, graphed and analyzed using parametric and non-parametric statistics.

[2] = tested on: WT mice; experiment: Novel object recognition assay (Discrimination Index) in WT mice; assay type: in vivo, mouse
Description: as §1, §2
The novel object recognition task is based on the innate tendency of rodents to differentially explore novel objects over familiar ones. The task is well validated for evaluating rodent memory and the effects of drug treatments on learning/memory performance.
Mice were trained and tested once per week, each experimental session separated by a one-week interval. Mice were submitted to daily handling sessions, and given an opportunity to habituate to an open field arena (48 cm×48 cm wide×25 cm), where they were exposed to two different objects (complex protocol), during a 5-minute training session. Objects were made from various non-porous materials that differ in shape and color. Mice were unable to climb onto the objects and the objects were generally consistent in height and volume, and were roughly symmetrical on a horizontal plane. Objects were positioned in two corners of the apparatus. To control for odor cues, the open field arena and the objects are thoroughly cleaned with 90% ethanol, dried, and ventilated for a few minutes between mice.
A 5-minute testing session was conducted 24 h after training. Here, the mice were presented with the object they had explored the previous day, and a new item (the objects being alternatively positioned in one corner or another in a balanced fashion within a given week, and from one week to another). […]

[3] = tested on: Ts65Dn mice; experiment: Modified spontaneous alternation task (T-maze) in Ts65Dn mice (paper Examples 1 and 2); assay type: in vivo, mouse; conditions: 5 to 30 doses, 3 mg/kg in milk orally or 1 mg/kg i.p.
Description: (§3) Flumazenil may also be tested for its effects on declarative memory in the novel object recognition test and in a modified spontaneous alternation task. Wild-type and Ts65Dn mice may be administered flumazenil (3 mg/kg in milk via voluntary oral feeding or 1 mg/kg i.p.). The wild-type and Ts65Dn mice are administered from 5 to 30 doses of milk or milk-flumazenil (or saline or flumazenil solution i.p.). The mice are then subjected to two repetitions of novel object recognition testing or three daily T-maze sessions at the tail end of the treatment regimen. […] Comparison of treated and untreated Ts65Dn mice will provide controls for any possible arm bias in the spontaneous alternation task.
as §3, with “Bretazenil may” for “Flumazenil may”, “administered bretazenil” for “administered flumazenil”

[4] = of the intravenous bioavailability; cited from earlier work

CCOC(=O)c1ncn2c1CN(C)C(=O)c1cc(F)ccc1-2 [flumazenil, 8-fluoro-5,6-dihydro-5-methyl-6-oxo-4H-imidazo[1,5-a]benzodiazepine-3-carboxylic acid ethyl ester]
LMA vertical rearing ([1]; PTX during drug administration phases, flumazenil over the 4 week testing regimen): least effect
LMA marginal distance traveled ([1]; across sessions, PTX 1 mg/kg, flumazenil 10 mg/kg i.p.): very little habituation across sessions
Discrimination Index (DI) ([2]; Week 2 of drug therapy, versus vehicle): no differences
Discrimination Index (DI) ([2]; Week 4 (2 weeks post dosing)): slight negative DI
spontaneous alternation [3]: normal levels of alternation
oral bioavailability [4]: approximately 20%
